The results in this text go back to US12227496B2 (BRISTOL-MYERS SQUIBB COMPANY, priority 2019, dated 2025).

The target in this test is T1, human FXR (Homo sapiens, UniProt Q96RI1).
T1 construct: expressed in transfected cells; host or cells: HEK293 cells stably carrying a 5xGal4-response-element firefly luciferase reporter, transiently transfected with pcDNA3.1-Gal4-FXR
T1 sequence (Q96RI1 262-486 limits assumed): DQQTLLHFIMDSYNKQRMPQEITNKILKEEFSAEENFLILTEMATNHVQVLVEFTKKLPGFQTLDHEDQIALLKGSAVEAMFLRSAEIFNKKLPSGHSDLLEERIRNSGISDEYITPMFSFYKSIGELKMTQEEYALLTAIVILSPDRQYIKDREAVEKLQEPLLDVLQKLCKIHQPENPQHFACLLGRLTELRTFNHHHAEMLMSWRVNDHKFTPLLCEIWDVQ
Briefly: transient human FXR/Gal4-luciferase reporter assay. Type of test: cell-based. The conditions noted are these: Gal4-hFXR LBD fusion, luciferase reporter in HEK293 cells; response relative to 8 μM GW-4064. In a few lines: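 HEK293 cells stably carrying a 5×Gal4-response-element firefly luciferase reporter were transiently transfected with Gal4-hFXR. They were then incubated overnight at 37 °C with compound serial dilutions in medium containing 10% charcoal/dextran-stripped FBS. Luminescence was read after Steady-Glo addition.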
For orientation: Reporter assays use an easily measured gene product as a stand-in for the process of interest.
As usually defined, the EC50 is the concentration that produces a half-maximal response. Lower therefore signals an effect from little substance. `COc1cc(-c2cccc(N(CC34CCC(c5nnc(C)s5)(CC3)CC4)C(=O)C3CCC(F)(F)CC3)c2)ccn1` [Example 82, 4,4-difluoro-N-(3-(2-methoxypyridin-4-yl)phenyl)-N-((4-(5-methyl-1,3,4-thiadiazol-2-yl)bicyclo[2.2.2]octan-1-yl)methyl)cyclohexane-1-carboxamide]: a half-maximal response (EC50) required 4760 nM. Take `COc1cc(-c2cccc(N(CC34CCC(c5nc(C6CC6)no5)(CC3)CC4)C(=O)C3CCOCC3)c2)ccn1` [Example 83, N-((4-(3-cyclopropyl-1,2,4-oxadiazol-5-yl)bicyclo[2.2.2]octan-1-yl)methyl)-N-(3-(2-methoxypyridin-4-yl)phenyl)tetrahydro-2H-pyran-4-carboxamide]: a half-maximal effect (EC50) was put at 303 nM. In the case of `COc1nccc(-c2cccc(N(CC34CCC(c5nc(C6CC6)no5)(CC3)CC4)C(=O)C3CCOCC3)c2)n1` [Example 84, N-((4-(3-cyclopropyl-1,2,4-oxadiazol-5-yl)bicyclo[2.2.2]octan-1-yl)methyl)-N-(3-(2-methoxypyrimidin-4-yl)phenyl)tetrahydro-2H-pyran-4-carboxamide], the EC50 came out at 1770 nM.

In turn, `COc1nccc(-c2cccc(N(CC34CCC(c5nc(C6CC6)no5)(CC3)CC4)C(=O)C3CCC(F)(F)CC3)c2)n1` [Example 85, N-((4-(3-cyclopropyl-1,2,4-oxadiazol-5-yl)bicyclo[2.2.2]octan-1-yl)methyl)-4,4-difluoro-N-(3-(2-methoxypyrimidin-4-yl)phenyl)cyclohexane-1-carboxamide] had an EC50 of 787 nM. `O=C(C1CCOCC1)N(CC12CCC(c3nc(C4CC4)no3)(CC1)CC2)c1cccc(-c2ccnc(OC3CC3)n2)c1` [Example 86, N-(3-(2-cyclopropoxypyrimidin-4-yl)phenyl)-N-((4-(3-cyclopropyl-1,2,4-oxadiazol-5-yl)bicyclo[2.2.2]octan-1-yl)methyl)tetrahydro-2H-pyran-4-carboxamide]: the 50% effective concentration (EC50) came to 2470 nM. The molecule `CCOc1ncc(-c2cccc(N(CC34CCC(c5nc(C(C)(C)C)no5)(CC3)CC4)C(=O)C3CCOCC3)c2)cn1` [Example 87, N-((4-(3-(tert-butyl)-1,2,4-oxadiazol-5-yl)bicyclo[2.2.2]octan-1-yl)methyl)-N-(3-(2-ethoxypyrimidin-5-yl)phenyl)tetrahydro-2H-pyran-4-carboxamide] showed a concentration giving a half-maximal response (EC50) of 274 nM. For the molecule `CCOc1ncc(-c2cccc(N(CC34CCC(c5noc(C(C)(C)C)n5)(CC3)CC4)C(=O)C3CCOCC3)c2)cn1` [Example 88, N-((4-(5-(tert-butyl)-1,2,4-oxadiazol-3-yl)bicyclo[2.2.2]octan-1-yl)methyl)-N-(3-(2-ethoxypyrimidin-5-yl)phenyl)tetrahydro-2H-pyran-4-carboxamide], the concentration for a half-maximal effect (EC50) amounted to 227 nM. Consider `CC(C)(C)c1nc(C23CCC(CN(C(=O)C4CCOCC4)c4cccc(-c5ccc(OC(F)F)cc5)c4)(CC2)CC3)no1` [Example 89, N-((4-(5-(tert-butyl)-1,2,4-oxadiazol-3-yl)bicyclo[2.2.2]octan-1-yl)methyl)-N-(4′-(difluoromethoxy)-[1,1′-biphenyl]-3-yl)tetrahydro-2H-pyran-4-carboxamide], for which it took 96 nM to reach a half-maximal effect (EC50). The result for `Cc1nc2ccc(-c3cccc(N(CC45CCC(c6nc(C7CC7)no6)(CC4)CC5)C(=O)C4CCCCC4)c3)cc2s1` [Example 90, N-((4-(3-cyclopropyl-1,2,4-oxadiazol-5-yl)bicyclo[2.2.2]octan-1-yl)methyl)-N-(3-(2-methylbenzo[d]thiazol-6-yl)phenyl)cyclohexanecarboxamide] reads 36 nM. Take `Cc1nc2ccc(-c3cccc(N(CC45CCC(c6nc(C7CC7)no6)(CC4)CC5)C(=O)C4CCOCC4)c3)cc2s1` [Example 91, N-((4-(3-cyclopropyl-1,2,4-oxadiazol-5-yl)bicyclo[2.2.2]octan-1-yl)methyl)-N-(3-(2-methylbenzo[d]thiazol-6-yl)phenyl)tetrahydro-2H-pyran-4-carboxamide]: the EC50 stood at 97 nM.

With `O=C(C1CCC(F)(F)CC1)N(CC12CCC(c3nc(C4CC4)no3)(CC1)CC2)c1cccc(-c2nc3cc(F)ccc3o2)c1` [Example 93, N-((4-(3-cyclopropyl-1,2,4-oxadiazol-5-yl)bicyclo[2.2.2]octan-1-yl)methyl)-4,4-difluoro-N-(3-(5-fluorobenzo[d]oxazol-2-yl)phenyl)cyclohexane-1-carboxamide], it took 799 nM to reach a half-maximal effect (EC50). The result for `COc1cc(-c2cccc(N(CC34CC(c5nc(C6CC6)no5)(C3)C4)C(=O)C3CCCCC3)c2)ccn1` [Example 96, N-((3-(3-cyclopropyl-1,2,4-oxadiazol-5-yl)bicyclo[1.1.1]pentan-1-yl)methyl)-N-(3-(2-methoxypyridin-4-yl)phenyl)cyclohexanecarboxamide] reads 3430 nM. For `COc1cc(-c2cccc(N(CC34CC(c5nc(C6CCOCC6)no5)(C3)C4)C(=O)C3CCCCC3)c2)ccn1` [Example 97, N-(3-(2-methoxypyridin-4-yl)phenyl)-N-((3-(3-(tetrahydro-2H-pyran-4-yl)-1,2,4-oxadiazol-5-yl)bicyclo[1.1.1]pentan-1-yl)methyl)cyclohexanecarboxamide], the EC50 worked out at 1710 nM.

With `COc1cc(-c2cccc(N(CC34CCC(C(=O)NC5CC5)(CC3)CC4)C(=O)C3CCCCC3)c2)ccn1` [Example 98, N-cyclopropyl-4-((N-(3-(2-methoxypyridin-4-yl)phenyl)cyclohexanecarboxamido)methyl)bicyclo[2.2.2]octane-1-carboxamide], the EC50 worked out at 399 nM. `COc1cc(-c2cccc(N(CC34CCC(C#N)(CC3)CC4)C(=O)C3CCCCC3)c2)ccn1` [Example 99, N-((4-cyanobicyclo[2.2.2]octan-1-yl)methyl)-N-(3-(2-methoxypyridin-4-yl)phenyl)cyclohexanecarboxamide] registered a concentration giving a half-maximal response (EC50) of 1530 nM. `COc1cc(-c2cccc(N(CC34CCC(c5nnnn5C)(CC3)CC4)C(=O)C3CCCCC3)c2)ccn1` [Example 100, N-(3-(2-methoxypyridin-4-yl)phenyl)-N-((4-(1-methyl-1H-tetrazol-5-yl)bicyclo[2.2.2]octan-1-yl)methyl)cyclohexanecarboxamide] displayed a concentration giving a half-maximal response (EC50) of 506 nM. Next, `CC(C)(C)c1noc(C23CCC(CN(C(=O)C4CCC(F)(F)CC4)c4cccc(-c5nc(C6CC6)no5)c4)(CC2)CC3)n1` [Example 103, N-((4-(3-(tert-butyl)-1,2,4-oxadiazol-5-yl)bicyclo[2.2.2]octan-1-yl)methyl)-N-(3-(3-cyclopropyl-1,2,4-oxadiazol-5-yl)phenyl)-4,4-difluorocyclohexane-1-carboxamide]: 250 nM.

`CCOc1ccc(-c2cc(N(CC34CCC(c5noc(C(C)(F)F)n5)(CC3)CC4)C(=O)C3CCC(F)(F)CC3)ccc2F)cc1` [Example 105, N-((4-(5-(1,1-difluoroethyl)-1,2,4-oxadiazol-3-yl)bicyclo[2.2.2]octan-1-yl)methyl)-N-(4′-ethoxy-6-fluoro-[1,1′-biphenyl]-3-yl)-4,4-difluorocyclohexane-1-carboxamide] displayed a 50% effective concentration (EC50) of 637 nM. The result for `CCOc1ncc(-c2cc(N(CC34CCC(c5noc(C(C)(F)F)n5)(CC3)CC4)C(=O)C3CCC(F)(F)CC3)ccc2F)cn1` [Example 106, N-((4-(5-(1,1-difluoroethyl)-1,2,4-oxadiazol-3-yl)bicyclo[2.2.2]octan-1-yl)methyl)-N-(3-(2-ethoxypyrimidin-5-yl)-4-fluorophenyl)-4,4-difluorocyclohexane-1-carboxamide] reads 406 nM; that for `CC(F)(F)c1nc(C23CCC(CN(C(=O)C4CCC(F)(F)CC4)c4ccc(F)c(-c5ccc(S(C)(=O)=O)cc5)c4)(CC2)CC3)no1` [Example 107, N-((4-(5-(1,1-difluoroethyl)-1,2,4-oxadiazol-3-yl)bicyclo[2.2.2]octan-1-yl)methyl)-4,4-difluoro-N-(6-fluoro-4′-(methylsulfonyl)-[1,1′-biphenyl]-3-yl)cyclohexane-1-carboxamide], 1020 nM. `Cc1nc2ccc(-c3cc(N(CC45CCC(c6noc(C(C)(F)F)n6)(CC4)CC5)C(=O)C4CCC(F)(F)CC4)ccc3F)cc2s1` [Example 108, N-((4-(5-(1,1-difluoroethyl)-1,2,4-oxadiazol-3-yl)bicyclo[2.2.2]octan-1-yl)methyl)-4,4-difluoro-N-(4-fluoro-3-(2-methylbenzo[d]thiazol-6-yl)phenyl)cyclohexane-1-carboxamide] had a concentration for a half-maximal effect (EC50) of 250 nM. Molecule `CC(F)(F)c1nc(C23CCC(CN(C(=O)C4CCOCC4)c4cccc(-c5ccc(OC(F)F)cc5)c4)(CC2)CC3)no1` [Example 109, N-((4-(5-(1,1-difluoroethyl)-1,2,4-oxadiazol-3-yl)bicyclo[2.2.2]octan-1-yl)methyl)-N-(4′-(difluoromethoxy)-[1,1′-biphenyl]-3-yl)tetrahydro-2H-pyran-4-carboxamide] came in with an EC50 of 50 nM. `CC(F)(F)c1nc(C23CCC(CN(C(=O)C4CCS(=O)(=O)CC4)c4cccc(-c5ccc(OC(F)F)cc5)c4)(CC2)CC3)no1` [Example 110, N-((4-(5-(1,1-difluoroethyl)-1,2,4-oxadiazol-3-yl)bicyclo[2.2.2]octan-1-yl)methyl)-N-(4′-(difluoromethoxy)-[1,1′-biphenyl]-3-yl)tetrahydro-2H-thiopyran-4-carboxamide 1,1-dioxide] yielded an EC50 of 467 nM. The molecule `CC(F)(F)c1nc(C23CCC(CN(C(=O)C4CCC(F)(F)CC4)c4cccc(-c5ccc(OC(F)F)cc5)c4)(CC2)CC3)no1` [Example 111, N-((4-(5-(1,1-difluoroethyl)-1,2,4-oxadiazol-3-yl)bicyclo[2.2.2]octan-1-yl)methyl)-N-(4′-(difluoromethoxy)-[1,1′-biphenyl]-3-yl)-4,4-difluorocyclohexane-1-carboxamide] registered a 50% effective concentration (EC50) of 69 nM.
